{"source": "paper PMC8048639", "about": "(2021)", "key": {"[1]": {"test_system": "poly(rG) (RNA, polymer) G", "assay": "fluorimetric titration, Scatchard fit", "conditions": "Na+ (sodium cacodylate buffer, I=0.05 M), pH 7.0, n fixed, per base"}, "[2]": {"test_system": "poly(rA) (RNA, polymer) A", "assay": "fluorimetric titration, Scatchard fit", "conditions": "Na+ (sodium cacodylate buffer, I=0.05 M), pH 7.0, n fixed, per base"}, "[3]": {"test_system": "poly(rU) (RNA, polymer) U", "assay": "fluorimetric titration, Scatchard fit", "conditions": "Na+ (sodium cacodylate buffer, I=0.05 M), pH 7.0, n fixed, per base"}, "[4]": {"test_system": "poly(dT) (DNA, polymer) T", "assay": "fluorimetric titration, Scatchard fit", "conditions": "Na+ (sodium cacodylate buffer, I=0.05 M), pH 7.0, n fixed, per base"}, "[5]": {"test_system": "poly(rA)-poly(rU) (RNA, polymer) A/U", "assay": "fluorimetric titration, Scatchard fit", "conditions": "Na+ (sodium cacodylate buffer, I=0.05 M), pH 7.0, per base"}, "[6]": {"test_system": "poly(dAdT)2 (DNA, polymer) AT", "assay": "UV thermal melting at 260 nm", "conditions": "Na+ (sodium cacodylate buffer, I=0.05 M); pH 7.0; r=[compound]/[polynucleotide]=0.1; per base"}, "[7]": {"test_system": "poly(dAdT)2 (DNA, polymer) AT", "assay": "fluorimetric titration, Scatchard fit", "conditions": "Na+ (sodium cacodylate buffer, I=0.05 M), pH 7.0, n fixed, per base"}, "[8]": {"test_system": "poly(dGdC)2 (DNA, polymer) GC", "assay": "fluorimetric titration, Scatchard fit", "conditions": "Na+ (sodium cacodylate buffer, I=0.05 M), pH 7.0, n fixed, per base"}, "[9]": {"test_system": "poly(rA)-poly(rU) (RNA, polymer) A/U", "assay": "UV thermal melting at 260 nm", "conditions": "Na+ (sodium cacodylate buffer, I=0.05 M); pH 7.0; r=[compound]/[polynucleotide]=0.1; per base"}, "[10]": {"test_system": "poly(rC) (RNA, polymer) C", "assay": "fluorimetric titration, Scatchard fit", "conditions": "Na+ (sodium cacodylate buffer, I=0.05 M), pH 7.0, n fixed, per base"}, "[11]": {"test_system": "poly(dA) (DNA, polymer) A", "assay": "fluorimetric titration, Scatchard fit", "conditions": "Na+ (sodium cacodylate buffer, I=0.05 M); pH 7.0; compound 5×10^-8 M; n fixed; per base"}, "[12]": {"conditions": "compound 5×10^-8 M, aggregation at excess dye"}, "[13]": {"conditions": "compound 5×10^-8 M, apparent, lowered by competing aggregation"}}, "data": [{"molecule": "Cc1cc(C#Cc2c3ccccc3c(C#Cc3cc(C)c(B(c4c(C)cc([N+](C)(C)C)cc4C)c4c(C)cc([N+](C)(C)C)cc4C)c(C)c3)c3ccccc23)cc(C)c1B(c1c(C)cc([N+](C)(C)C)cc1C)c1c(C)cc([N+](C)(C)C)cc1C", "values": [{"measurement": "log K S", "setting": "[1]", "result": 8.7}, {"measurement": "log K S", "setting": "[2]", "result": 7.8}, {"measurement": "log K S", "setting": "[3]", "result": 8.8}, {"measurement": "log K S", "setting": "[4]", "result": 7.4}, {"measurement": "log K S", "setting": "[5]; compound 1×10^-8 M, limit only", "result": "> 9"}, {"measurement": "ΔT m", "setting": "[6]", "result": "6 ± 0.5", "unit": "°C"}, {"measurement": "log K S", "setting": "[7]; compound 1×10^-8 M, aggregation at excess dye", "result": 7.7}, {"measurement": "log K S", "setting": "[8]; compound 1×10^-8 M", "result": 7.9}, {"measurement": "ΔT m", "setting": "[9]", "result": "8 ± 0.5", "unit": "°C"}]}, {"molecule": "Cc1cc(C#Cc2ccc(-c3ccc(C#Cc4cc(C)c(B(c5c(C)cc([N+](C)(C)C)cc5C)c5c(C)cc([N+](C)(C)C)cc5C)c(C)c4)s3)s2)cc(C)c1B(c1c(C)cc([N+](C)(C)C)cc1C)c1c(C)cc([N+](C)(C)C)cc1C", "values": [{"measurement": "log K S", "setting": "[1]; [12]", "result": 7.1}, {"measurement": "log K S", "setting": "[3]; compound 5×10^-8 M", "result": 7.0}, {"measurement": "log K S", "setting": "[4]; compound 5×10^-8 M", "result": 7.6}, {"measurement": "log K S", "setting": "[5]; compound 5×10^-8 M, apparent, lowered by competing aggregation, n fixed", "result": 6.0}, {"measurement": "ΔT m", "setting": "[6]", "result": "3 ± 0.5", "unit": "°C"}, {"measurement": "log K S", "setting": "[7]; [13]", "result": 5.1}, {"measurement": "log K S", "setting": "[10]; [12]", "result": 7.4}, {"measurement": "log K S", "setting": "[8]; [13]", "result": 6.6}, {"measurement": "log K S", "setting": "[11]", "result": 7.6}, {"measurement": "ΔT m", "setting": "[9]", "result": "7 ± 0.5", "unit": "°C"}]}, {"molecule": "Cc1cc(C#Cc2ccc(C#Cc3cc(C)c(B(c4c(C)cc([N+](C)(C)C)cc4C)c4c(C)cc([N+](C)(C)C)cc4C)c(C)c3)cc2)cc(C)c1B(c1c(C)cc([N+](C)(C)C)cc1C)c1c(C)cc([N+](C)(C)C)cc1C", "values": [{"measurement": "log K S", "setting": "[1]", "result": 8.7}, {"measurement": "log K S", "setting": "[2]", "result": 8.4}, {"measurement": "log K S", "setting": "[3]", "result": 7.4}, {"measurement": "log K S", "setting": "[4]", "result": 8.5}, {"measurement": "log K S", "setting": "[5]; n fixed", "result": 8.6}, {"measurement": "log K S", "setting": "[7]; compound 5×10^-9 M", "result": 7.8}, {"measurement": "log K S", "setting": "[10]", "result": 7.1}, {"measurement": "log K S", "setting": "[8]", "result": 8.4}, {"measurement": "ΔT m", "setting": "[9]", "result": "9 ± 0.5", "unit": "°C"}]}, {"molecule": "Cc1cc([N+](C)(C)C)cc(C)c1B(c1c(C)cc([N+](C)(C)C)cc1C)c1c2ccccc2c(B(c2c(C)cc([N+](C)(C)C)cc2C)c2c(C)cc([N+](C)(C)C)cc2C)c2ccccc12", "values": [{"measurement": "log K S", "setting": "[1]; compound 5×10^-8 M", "result": 7.3}, {"measurement": "log K S", "setting": "[2]; compound 5×10^-8 M", "result": 7.1}, {"measurement": "log K S", "setting": "[3]; compound 5×10^-8 M", "result": 7.1}, {"measurement": "log K S", "setting": "[5]; compound 5×10^-8 M, n fixed", "result": 7.9}, {"measurement": "log K S", "setting": "[7]; compound 5×10^-8 M", "result": 7.4}, {"measurement": "log K S", "setting": "[10]; compound 5×10^-8 M", "result": 7.2}, {"measurement": "log K S", "setting": "[8]; compound 5×10^-8 M", "result": 7.8}, {"measurement": "ΔT m", "setting": "[9]", "result": "0 ± 0.5", "unit": "°C"}]}]}
